Data as given in patent US10695279B2, “Peptide having skin-whitening activity and use thereof” (CAREGEN CO., LTD., priority 2017, dated 2020).

Assays:
tyrosinase [1] = assay: Measurement of tyrosinase expression level (fluorescence microscope, tyrosinase antibody); type: cell-based, mouse; settings: B16F10, α-MSH (200 ng/ml), peptide 50, 100 uM, 48 hours; dose-dependent; FIG. 5
Description: Then, the cells were incubated for 48 hours, and the intracellular expression protein was stained with FITC-conjugated tyrosinase antibody (Santa Cruz biotechnology, USA) and FITC-conjugated secondary IgG antibody (Santa Cruz biotechnology, USA).

C57BL/6 mice = assay: In vivo whitening effect, application to the tail; settings: C57BL/6 mice tail skin, liposomal peptide 5,000 ppm once a day, about 8 weeks, F&M staining, versus control group; FIGS. 14b and 14c
Description: Liposomal peptide (5,000 ppm) or arbutin as a positive control was applied to the tail of 8-week-old C57BL/6 mice once a day, and the experiment was conducted for about 8 weeks. After the completion of the experiment, the mice were sacrificed to extract tail skin tissues, which were then embedded in paraffin to manufacture paraffin blocks. Then, the paraffin blocks were made into paraffin sections and morphologically observed through Fontana-Masson staining.

tyrosinase [2] = assay: Gene expression of melanin-forming factors (PCR): tyrosinase; type: cell-based, mouse; settings: B16F10, α-MSH (200 ng/ml), peptide 100, 200 uM, 24 hours, FIG. 6
[3] = system: human keratinocyte line (HaCaT); settings: melanosomes pretreated 48 hours, peptide 100, 200 uM, dose-dependent, FIG. 13
Description: After human keratinocyte line (HaCaT) was cultured in 6-well culture plates for 24 hours, melanosomes isolated from mouse melanoma cell line (B16F10) were pretreated for 48 hours in serum-free culture medium. The plates were washed with PBS to remove un-transferred melanosomes, and then the cells were treated with the peptide at different concentrations (100, 200 uM) or arbutin (200 uM) as a positive control, and TGFβ-1, followed by incubation for 48 hours. In order to measure the degradation of melanosomes phagocytized into keratinocytes, 1 M NaOH was added to pellets obtained by keratinocyte collection and precipitation, and the pellets were dissolved in an oven at 80° C., and then the OD value at 490 nm was measured.

[4] = system: human keratinocyte line (HaCaT); settings: peptide 100, 200 uM, 24 hours, Vybrant Phagocytosis Assay Kit, FIG. 12
Description: After human keratinocyte line (HaCaT) was cultured in 24-well culture plates for 24 hours, the cells were treated with the present peptide at different concentrations (100, 200 uM) or arbutin (200 uM) as a positive control in 0.5% FBS culture medium, followed by incubation for 24 hours. Thereafter, the inhibition of phagocytosis of the human keratinocyte line was observed using the Vybrant Phagocytosis Assay Kit (V-6694).

[5] = system: melanin-forming cells (B16F10 cell line); settings: B16F10, α-MSH (200 ng/ml), peptide 50, 100, 200 uM, 72 hours; dose-dependent; FIG. 3
Description: After melanin-forming cells (B16F10 cell line) dispensed in 6-well culture plates were incubated in a 37° C. incubator for 24 hours, the medium for each plate was removed and replaced with new medium (10% serum medium). Then, the cells were treated with α-MSH (200 ng/ml), arbutin (500 uM), or the peptide of the present invention at different concentrations (50, 100, 200 uM). The cells were incubated for 72 hours, and then the formed melanin was observed through an optical microscope.

[6] = system: human keratinocyte line (HaCaT); settings: melanosomes isolated from B16F10, peptide 10, 50, 100, 200 uM, 48 hours, Fontana-Masson staining, dose-dependent, FIG. 11
Description: After human keratinocyte line (HaCaT) was cultured in 6-well culture plates for 24 hours, the melanosomes isolated from mouse melanoma cell line (B16F10) were pretreated for 3 hours in serum-free culture medium. Then, the cells were treated with the present peptide at different concentrations (10, 50, 100, 200 uM) or arbutin (200 uM) as a positive control, followed by incubation for 48 hours. Then, the plates were washed with PBS to remove un-transferred melanosomes, and subjected to Fontana-Masson staining to observe the inhibition of the melanosome phagocytosis by keratinocytes through a microscope.

[7] = system: melanin-forming cells (B16F10 cell line); settings: B16F10, α-MSH (200 ng/ml), peptide 50, 100, 200 uM, 72 hours; dose-dependent, **P≤0.01; FIGS. 2a and 2b
Description: After melanin-forming cells (B16F10 cell line) dispensed in 6-well culture plates were incubated in a 37° C. incubator for 24 hours, the medium for each plate was removed and then replaced with new medium (2% serum medium). Then, the cells were treated with α-MSH (200 ng/ml), arbutin (200, 500 uM), or the peptide of the present invention at different concentrations (50, 100, 200 uM). Thereafter, the cells were incubated for 72 hours, and then the culture medium was removed. The cells were detached and then transferred into a 1.5 ml tube, followed by centrifugation at 13,000 rpm for 3 minutes. The supernatant was removed, and cell pellets were collected to observe melanin. Then, 150 μl of 2 M NaOH was added to the cell pellets to lyse intracellular melanin at 60° C. for 30 minutes. Then, 100 μl of the supernatant obtained from the lysis was added into each well of a 96-well plate, and the absorbance at 490 nm was measured.

PAR2 = settings: HaCaT, trypsin-induced, peptide 100, 200 uM, 16 hours, PCR; FIG. 9
Description: After a human keratinocyte line (HaCaT) was incubated in 6-well culture plates for 24 hours, the cells were treated with trypsin as an activity-inducing material and the present peptide at different concentrations (100, 200 uM). After RNA was extracted from the cells incubated for 16 hours, cDNA was prepared.
PCR was conducted using a primer pair (see table 3 below) specific to PAR2, which is one of surface receptors of keratocytes activated by a trypsin action, and then the change in the expression of each gene was observed.

[8] = system: human keratinocyte line (HaCaT); settings: melanosomes isolated from B16F10, peptide 10, 50, 100, 200 uM, 48 hours, FIG. 10
Description: After human keratinocyte line (HaCaT) was cultured in 6-well culture plates for 24 hours, the melanosomes isolated from mouse melanoma cell line (B16F10) were pretreated for 3 hours in serum-free culture medium, and then the cells were treated with the present peptide at different concentrations (10, 50, 100, 200 uM) or arbutin (200 uM) as a positive control, followed by incubation for 48 hours. Then, the plates were washed with PBS to remove un-transferred melanosomes, and 1 N NaOH was added to pellets, which had been obtained through cell collection and precipitation. Then, 1 M NaOH was added to the pellets, and the pellets were dissolved in an oven at 80° C., and then the OD value at 490 nm was measured.

tyrosinase [9] = biological target: T1, tyrosinase (Mus musculus, UniProt P11344); assay: Measurement of tyrosinase activity in cells (L-dopa, absorbance at 475 nm); type: cell-based; settings: B16F10, α-MSH (200 ng/ml), peptide 50, 100, 200 uM, 72 hours; dose-dependent, **P≤0.01; FIG. 4
T1 construct: endogenous in cells; host or cells: B16F10 mouse melanoma cells
T1 sequence (P11344 19-533): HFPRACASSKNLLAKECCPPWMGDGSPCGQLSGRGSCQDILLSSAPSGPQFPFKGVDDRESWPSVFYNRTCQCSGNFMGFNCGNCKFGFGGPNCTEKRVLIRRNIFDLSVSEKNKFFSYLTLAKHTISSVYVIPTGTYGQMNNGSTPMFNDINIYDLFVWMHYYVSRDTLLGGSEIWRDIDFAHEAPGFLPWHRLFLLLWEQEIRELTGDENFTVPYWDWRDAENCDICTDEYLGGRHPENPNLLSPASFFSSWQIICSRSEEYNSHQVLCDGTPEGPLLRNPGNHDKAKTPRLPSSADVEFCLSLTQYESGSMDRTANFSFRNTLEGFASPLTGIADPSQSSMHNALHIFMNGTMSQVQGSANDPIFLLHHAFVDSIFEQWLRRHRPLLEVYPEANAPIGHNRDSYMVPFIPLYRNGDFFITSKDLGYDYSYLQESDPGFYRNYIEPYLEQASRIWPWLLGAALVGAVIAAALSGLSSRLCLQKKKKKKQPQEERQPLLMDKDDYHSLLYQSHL
Description: The 6-well culture plates were loaded on ice and washed with cool PBS, and then 300 μl of 0.1 M sodium phosphate buffer (pH 6.8 lysis buffer) containing 1% Triton X-100 was added. The cells were collected in a 1.5 mL tube, and then cell membranes were disrupted by repeating rapid-freezing at […] and thawing, five times. Then, the tube was centrifuged at 13,000 rpm for 20 minutes, and then the supernatant was collected in another 1.5 mL tube, and the protein content of the samples was quantified. The samples were diluted to have the same protein concentration and then dispensed in three wells each in a 96-well culture plate, and then 20 μl of 10 mM L-dopa was added, followed by incubation at 37° C. for 1 hour.

MITF [10] = settings: B16F10, α-MSH (200 ng/ml), peptide 100, 200 uM, 24 hours, PCR; FIG. 6
Description: (§1) After melanin-forming cells (B16F10 cell line) were incubated in 6-well culture plates for 24 hours, the cells were treated with α-MSH (200 ng/ml), arbutin (500 uM), or the present peptide at different concentrations (100, 200 uM). After RNA was extracted from the cells incubated for 24 hours, cDNA was prepared. Then, PCR was conducted using the primers shown in Table 2 below, which are specific to MITF, tyrosinase, and TRP1, respectively, as melanogenesis-involved factors, and then the change in the expression of each gene was observed.

TRP1 = settings: B16F10, α-MSH (200 ng/ml), peptide 100, 200 uM, 24 hours, PCR; FIG. 6
Description: as §1

CREB = settings: B16F10, α-MSH (200 ng/ml), peptide 50, 100 uM, 10 minutes, western blot; FIG. 8
Description: (§2) After melanin-forming cells (B16F10 cell line) were incubated in 6-well culture plates for 24 hours, the cells were treated with α-MSH (200 ng/ml) or the present peptide at different concentrations (50, 100 uM).

MITF [11] = settings: B16F10, α-MSH (200 ng/ml), peptide 50, 100 uM, 72 hours, western blot; FIG. 7
Description: as §2

tyrosinase [12] = assay: Protein expression of melanin-forming factors (western blot): tyrosinase; type: cell-based, mouse; settings: B16F10, α-MSH (200 ng/ml), peptide 50, 100 uM, 72 hours, FIG. 7

tyrosinase expression level (tyrosinase [1]): tyrosinase expression inhibitory effect
tyrosinase activity in cells (tyrosinase [9]): tyrosinase activity inhibitory effect
Substance: Feruloyl-Ile-Trp-Ser-Leu-Asp-Thr-Gln-Tyr-Gly-Gly-Arg-Gly-Asp-COOH
amount of melanin distributed in the basal layer of the epidermis (C57BL/6 mice): significantly smaller than that in the control group
tyrosinase gene expression (tyrosinase [2]): strong effects of inhibiting MITF, tyrosinase, and TRP1 genes
degradation of melanosomes transferred into keratinocytes [3]: promote the degradation of the melanosomes transferred into the keratinocytes
amount of bioparticles transferred into keratinocytes (fluorescent microscopic image analysis) [4]: distinctive phagocytosis inhibitory effect
melanin formation observed through cell morphology [5]: melanogenesis inhibitory effect
amount of melanosomes transferred into keratinocytes (optical microscope image analysis) [6]: phagocytosis inhibitory effect
melanin production [7]: melanogenesis inhibitory effect
PAR2 gene expression (PAR2): reduced the expression of PAR2 gene in a dose-dependent manner
amount of melanosomes transferred into keratinocytes (absorbance) [8]: phagocytosis inhibitory effect
MITF gene expression (MITF [10]): strong effects of inhibiting MITF, tyrosinase, and TRP1 genes
TRP1 gene expression (TRP1): strong effects of inhibiting MITF, tyrosinase, and TRP1 genes
degree of phosphorylation of CREB (CREB): CREB phosphorylation inhibitory effect
MITF protein expression (MITF [11]): MITF and tyrosinase protein expression inhibitory effects
tyrosinase protein expression (tyrosinase [12]): MITF and tyrosinase protein expression inhibitory effects
